Measured values as given in ChEMBL document CHEMBL1146784, “Human ACAT-1 and -2 inhibitory activities of saucerneol B, manassantin A and B isolated from Saururus chinensis” (Bioorg Med Chem Lett, 2004).
Each block holds one molecule with its values, some of them ahead of it.

Tests used:
[1] = molecular target: T1, Sterol O-acyltransferase 2 (Homo sapiens, UniProt O75908); experiment: (§1) Concentration required to inhibit Acyl coenzyme A:cholesterol acyltransferase 2
T1 sequence (O75908 whole entry): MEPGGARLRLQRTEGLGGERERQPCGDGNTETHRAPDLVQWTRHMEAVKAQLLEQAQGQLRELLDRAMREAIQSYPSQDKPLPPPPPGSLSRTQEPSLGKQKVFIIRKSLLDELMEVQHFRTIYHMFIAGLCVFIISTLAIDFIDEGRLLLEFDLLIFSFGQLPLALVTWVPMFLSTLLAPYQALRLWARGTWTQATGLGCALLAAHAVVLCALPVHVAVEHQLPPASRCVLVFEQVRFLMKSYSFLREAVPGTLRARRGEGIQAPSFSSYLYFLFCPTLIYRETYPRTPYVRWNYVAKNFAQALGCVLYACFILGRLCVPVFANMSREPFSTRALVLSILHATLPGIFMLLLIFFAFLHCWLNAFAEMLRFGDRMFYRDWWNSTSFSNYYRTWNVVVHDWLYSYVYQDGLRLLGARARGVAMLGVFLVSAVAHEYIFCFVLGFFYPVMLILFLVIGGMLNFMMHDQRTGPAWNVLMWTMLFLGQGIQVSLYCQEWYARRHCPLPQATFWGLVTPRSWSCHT

[2] = organism: Mus musculus; experiment: Effect against body weight of mice when treated with 0.1% wt/wt diet of compound for 10 days; On day 0 =21.8 g; assay type: functional
[3] = molecular target: T2, Sterol O-acyltransferase 2 (Homo sapiens) (UniProt O75908); experiment: as §1; conditions: concentration not given here
T2 sequence (whole entry): T1 sequence (O75908 whole entry)

IC50 [1]: 39 µM
Structure (SMILES): COc1ccc(C(O)C(C)Oc2ccc([C@H]3O[C@H](c4ccc(OC(C)C(O)c5ccc(OC)c(OC)c5)c(OC)c4)[C@H](C)[C@H]3C)cc2OC)cc1OC (stereo partly drawn)

Structure (SMILES): CC(C)(Sc1cc(C(C)(C)C)c(O)c(C(C)(C)C)c1)Sc1cc(C(C)(C)C)c(O)c(C(C)(C)C)c1 [PROBUCOL]
Body weight [2]: 23.7 g

inhibition [3]: 32%
Structure (SMILES): COc1ccc(C(O)C(C)Oc2ccc([C@H]3O[C@H](c4ccc(OC(C)C(O)c5ccc6c(c5)OCO6)c(OC)c4)[C@H](C)[C@H]3C)cc2OC)cc1OC (stereo partly drawn)
